Data: patent US20060094691A1, “Inclusion complexes of rosiglitazone” (priority 2002, published 2006)

Test: Intrinsic Dissolution Rate (IDR) at pH 6.8 of the cyclodextrin complexes (Sotax intrinsic dissolution assembly, USP<1087>)
Type: physicochemical
Details: 100 rpm
Description: Data: Intrinsic Dissolution Rate (IDR) at pH 6.8 of the Cyclodextrin Complexes
The intrinsic dissolution rate was measured with a Sotax intrinsic dissolution assembly according to the procedure described in USP<1087>. The 8 mm diameter disc was formed from approximately 150 mg of cyclodextrin complex and compressed at a force of 5 tons for 30 seconds using a benchtop hydraulic press. The dissolution media was 1000 mL of water containing 31.6 mL of 1 M hydrochloric acid solution and 2.0 g of sodium chloride, which was adjusted to pH 6.8 with Tris/Acetate buffer, the dissolution volume was 900 mL at 37° C. and the rotating speed was 100 rpm. Detection was performed by flow through UV sampling every 2 minutes for 1 hour at 245 nm with a 1 cm path length.

IDR relative to the Maleate salt of Compound 1 (pH 6.8, 37° C., ratio to the maleate salt): 1
IDR (pH 6.8 dissolution media, 900 mL, 37° C., 8 mm disc, UV 245 nm): 0.057 mg/min/cm^2
SMILES: CN(CCOc1ccc(CC2SC(=O)NC2=O)cc1)c1ccccn1.O=C(O)/C=C\C(=O)O (centres unmarked) [Maleate salt of Compound 1, 5-[4-[2-(N-methyl-N-(2-pyridyl)amino)ethoxy]benzyl]thiazolidine-2,4-dione, maleate salt]
